Measured values as given in paper PMC3780361 (Bioorganic & medicinal chemistry, 2013).

Tested on: M. tuberculosis strains resistant to 1
Assay type: cell-based

Compound | Cross resistance with strains resistant to 1
O=C(Nc1nnc(C2CCC2)o1)NC1C2CC3CC(C2)CC1C3 (centres unmarked) [Compound 51, 1-(2-adamantyl)-3-(5-cyclobutyl-1,3,4-oxadiazol-2-yl)urea] | confirmed as on target against MmpL3
CC(C)(C)c1cc(NC(=O)NC2C3CC4CC(C3)CC2C4)no1 (centres unmarked) [Compound 46, 1-(2-adamantyl)-3-(5-t-butylisoxazol-3-yl)urea] | confirmed as on target against MmpL3
